Measured values published in PubChem BioAssay AID1918931 (Molecular Pharmacology Branch, DTP, NCI, 2023).

Tested on: 138582-337-R-J1-PDC complex spheroid viability
Assay: Anticancer human tumor 138582-337-R-J1-PDC patient-derived Merkel cell tumor cell line growth inhibition
Settings: for IC50: curve of first compound; for viability, T/C: stronger effect = lower value; active = viability on the fitted dose curve at most 10% of control; inactive = the rest
Summary of the method: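 Drug combinations with the LSD1 inhibitor iadademstat tested on tumor cells co-cultured as spheroids with endothelial cells and mesenchymal stem cells. Concentrations descended in half-log increments from clinical Cmax or 10 microM.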

[1] = second compound 0.1 µM, first compound 0.000316 µM
[2] = second compound 0.1 µM, first compound 0.001 µM
[3] = second compound 0.1 µM, first compound 0.00316 µM
[4] = second compound 0.1 µM, first compound 0.01 µM
[5] = second compound 0.1 µM, first compound 0.0316 µM
[6] = second compound 0.1 µM, first compound 0.1 µM
[7] = second compound 0.316 µM, first compound 0.000316 µM
[8] = second compound 0.316 µM, first compound 0.001 µM
[9] = second compound 0.316 µM, first compound 0.00316 µM
[10] = second compound 0.316 µM, first compound 0.01 µM
[11] = second compound 0.316 µM, first compound 0.0316 µM
[12] = second compound 0.316 µM, first compound 0.1 µM
[13] = second compound 1 µM, first compound 0.000316 µM
[14] = second compound 1 µM, first compound 0.001 µM
[15] = second compound 1 µM, first compound 0.00316 µM
[16] = second compound 1 µM, first compound 0.01 µM
[17] = second compound 1 µM, first compound 0.0316 µM
[18] = second compound 1 µM, first compound 0.1 µM
[19] = second compound 3.16 µM, first compound 0.000316 µM
[20] = second compound 3.16 µM, first compound 0.001 µM
[21] = second compound 3.16 µM, first compound 0.00316 µM
[22] = second compound 3.16 µM, first compound 0.01 µM
[23] = second compound 3.16 µM, first compound 0.0316 µM
[24] = second compound 3.16 µM, first compound 0.1 µM
[25] = second compound 10 µM, first compound 0.000316 µM
[26] = second compound 10 µM, first compound 0.001 µM
[27] = second compound 10 µM, first compound 0.00316 µM
[28] = second compound 10 µM, first compound 0.01 µM
[29] = second compound 10 µM, first compound 0.0316 µM
[30] = second compound 10 µM, first compound 0.1 µM
[31] = second compound 0.1 µM, first compound 0.00949 µM
[32] = second compound 0.1 µM, first compound 0.03 µM
[33] = second compound 0.1 µM, first compound 0.0949 µM
[34] = second compound 0.1 µM, first compound 0.3 µM
[35] = second compound 0.1 µM, first compound 0.949 µM
[36] = second compound 0.1 µM, first compound 3 µM
[37] = second compound 0.316 µM, first compound 0.00949 µM
[38] = second compound 0.316 µM, first compound 0.03 µM
[39] = second compound 0.316 µM, first compound 0.0949 µM
[40] = second compound 0.316 µM, first compound 0.3 µM
[41] = second compound 0.316 µM, first compound 0.949 µM
[42] = second compound 0.316 µM, first compound 3 µM
[43] = second compound 1 µM, first compound 0.00949 µM
[44] = second compound 1 µM, first compound 0.03 µM
[45] = second compound 1 µM, first compound 0.0949 µM
[46] = second compound 1 µM, first compound 0.3 µM
[47] = second compound 1 µM, first compound 0.949 µM
[48] = second compound 1 µM, first compound 3 µM
[49] = second compound 3.16 µM, first compound 0.00949 µM
[50] = second compound 3.16 µM, first compound 0.03 µM
[51] = second compound 3.16 µM, first compound 0.0949 µM
[52] = second compound 3.16 µM, first compound 0.3 µM
[53] = second compound 3.16 µM, first compound 0.949 µM
[54] = second compound 3.16 µM, first compound 3 µM
[55] = second compound 10 µM, first compound 0.00949 µM
[56] = second compound 10 µM, first compound 0.03 µM
[57] = second compound 10 µM, first compound 0.0949 µM
[58] = second compound 10 µM, first compound 0.3 µM
[59] = second compound 10 µM, first compound 0.949 µM
[60] = second compound 10 µM, first compound 3 µM
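Also: spheroids exposed to agents for 7 days.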
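For viability, T/C in this document: 100% = DMSO vehicle control viability.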

CC(C)CC(NC(=O)C(Cc1ccccc1)NC(=O)c1cnccn1)B(O)O (stereo not given) + NC1CC1c1ccc(-c2cccc(O)c2)cc1
0.000406 µM: IC50 (second compound 10 µM)
inactive: viability, T/C [1] 85.2% | viability, T/C [7] 77% | viability, T/C [13] 66% | viability, T/C [19] 57.5% | viability, T/C [25] 62.5%
0.000511 µM: IC50 (second compound 0.1 µM)
0.000476 µM: IC50 (second compound 0.316 µM)
0.00037 µM: IC50 (second compound 3.16 µM)
0.000422 µM: IC50 (second compound 1 µM)
active: viability, T/C [2] 0.72% | viability, T/C [3] 0.11% | viability, T/C [4] 0.11% | viability, T/C [5] 0.08% | viability, T/C [6] 0.28% | viability, T/C [8] 0.78% | viability, T/C [9] 1.61% | viability, T/C [10] 0.94% | viability, T/C [11] 0.07% | viability, T/C [12] 0.15% | viability, T/C [14] 2.41% | viability, T/C [15] 0.13% | viability, T/C [16] 0.11% | viability, T/C [17] 0.07% | viability, T/C [18] 0.18% | viability, T/C [20] 2.76% | viability, T/C [21] 0.12% | viability, T/C [22] 0.32% | viability, T/C [23] 0.11% | viability, T/C [24] 0.17% | viability, T/C [26] 4.98% | viability, T/C [27] 1.52% | viability, T/C [28] 1.12% | viability, T/C [29] 1.32% | viability, T/C [30] 0.55%

CC(C)CC(NC(=O)CNC(=O)c1cc(Cl)ccc1Cl)B1OC(=O)CC(CC(=O)O)(C(=O)O)O1 (stereo not given) + NC1CC1c1ccc(-c2cccc(O)c2)cc1
0.00949 µM: IC50 (second compound 10 µM)
0.00837 µM: IC50 (second compound 1 µM)
active: viability, T/C [5] 1.47% | viability, T/C [6] 0.24% | viability, T/C [11] 4.55% | viability, T/C [12] 0.6% | viability, T/C [17] 2.09% | viability, T/C [18] 0.29% | viability, T/C [23] 2.37% | viability, T/C [24] 0.26% | viability, T/C [29] 0.57% | viability, T/C [30] 0.27%
0.00859 µM: IC50 (second compound 0.316 µM)
0.0101 µM: IC50 (second compound 3.16 µM)
0.0118 µM: IC50 (second compound 0.1 µM)
inactive: viability, T/C [1] 94.3% | viability, T/C [2] 98.9% | viability, T/C [3] 101% | viability, T/C [4] 58.3% | viability, T/C [7] 80.7% | viability, T/C [8] 95% | viability, T/C [9] 115% | viability, T/C [10] 42.8% | viability, T/C [13] 92.5% | viability, T/C [14] 112% | viability, T/C [15] 140% | viability, T/C [16] 38.1% | viability, T/C [19] 113% | viability, T/C [20] 104% | viability, T/C [21] 126% | viability, T/C [22] 50.3% | viability, T/C [25] 110% | viability, T/C [26] 139% | viability, T/C [27] 129% | viability, T/C [28] 46.3%

Nc1ccccc1NC(=O)c1ccc(CNC(=O)OCc2cccnc2)cc1 + NC1CC1c1ccc(-c2cccc(O)c2)cc1
inactive: viability, T/C [31] 86.8% | viability, T/C [32] 72.7% | viability, T/C [33] 78.6% | viability, T/C [34] 53% | viability, T/C [37] 71.1% | viability, T/C [38] 76.6% | viability, T/C [39] 76.6% | viability, T/C [40] 57.4% | viability, T/C [43] 72.1% | viability, T/C [44] 53% | viability, T/C [45] 79.3% | viability, T/C [46] 62.6% | viability, T/C [49] 74.5% | viability, T/C [50] 77% | viability, T/C [51] 80.9% | viability, T/C [52] 50.8% | viability, T/C [55] 79.8% | viability, T/C [56] 70.2% | viability, T/C [57] 61.5% | viability, T/C [58] 50.1%
active: viability, T/C [35] 7.55% | viability, T/C [36] 0.52% | viability, T/C [41] 6.5% | viability, T/C [42] 0.75% | viability, T/C [47] 6.82% | viability, T/C [48] 0.31% | viability, T/C [53] 6.44% | viability, T/C [54] 0.64% | viability, T/C [59] 4.95% | viability, T/C [60] 0.46%
0.39 µM: IC50 (second compound 1 µM)
0.31 µM: IC50 (second compound 3.16 µM)
0.262 µM: IC50 (second compound 10 µM)
0.355 µM: IC50 (second compound 0.316 µM)
0.324 µM: IC50 (second compound 0.1 µM)

O=C(C=Cc1cccc(S(=O)(=O)Nc2ccccc2)c1)NO + NC1CC1c1ccc(-c2cccc(O)c2)cc1
0.113 µM: IC50 (second compound 10 µM)
< 0.00949 µM: IC50 (second compound 1 µM)
inactive: viability, T/C [31] 67.6% | viability, T/C [32] 64.1% | viability, T/C [33] 49.6% | viability, T/C [34] 36.1% | viability, T/C [35] 0.36% | viability, T/C [36] 69.3% | viability, T/C [37] 58% | viability, T/C [38] 53.2% | viability, T/C [39] 48.6% | viability, T/C [40] 21.1% | viability, T/C [41] 0.35% | viability, T/C [42] 59.1% | viability, T/C [43] 44.8% | viability, T/C [44] 51% | viability, T/C [45] 49.6% | viability, T/C [46] 25% | viability, T/C [47] 0.46% | viability, T/C [48] 49.2% | viability, T/C [49] 49.9% | viability, T/C [50] 63.3% | viability, T/C [51] 45.2% | viability, T/C [52] 25.6% | viability, T/C [53] 0.37% | viability, T/C [54] 30.9% | viability, T/C [55] 66.8% | viability, T/C [56] 57.6% | viability, T/C [57] 53.6% | viability, T/C [58] 29.8% | viability, T/C [59] 0.44% | viability, T/C [60] 41.2%
0.0648 µM: IC50 (second compound 3.16 µM)
0.0749 µM: IC50 (second compound 0.316 µM)
0.0907 µM: IC50 (second compound 0.1 µM)

O=C(c1cc(Cc2n[nH]c(=O)c3ccccc23)ccc1F)N1CCN(C(=O)C2CC2)CC1 + NC1CC1c1ccc(-c2cccc(O)c2)cc1
> 10 µM: IC50 (second compound 1 µM) | IC50 (second compound 3.16 µM) | IC50 (second compound 10 µM)
5.15 µM: IC50 (second compound 0.316 µM)
inactive: viability, T/C [5] 72% | viability, T/C [6] 74.9% | viability, T/C (second compound 0.1 µM, first compound 0.316 µM) 68.4% | viability, T/C (second compound 0.1 µM, first compound 1 µM) 68.5% | viability, T/C (second compound 0.1 µM, first compound 3.16 µM) 58.6% | viability, T/C (second compound 0.1 µM, first compound 10 µM) 49.5% | viability, T/C [11] 68.6% | viability, T/C [12] 73.7% | viability, T/C (second compound 0.316 µM, first compound 0.316 µM) 66.2% | viability, T/C (second compound 0.316 µM, first compound 1 µM) 57.6% | viability, T/C (second compound 0.316 µM, first compound 3.16 µM) 53.6% | viability, T/C (second compound 0.316 µM, first compound 10 µM) 45.7% | viability, T/C [17] 76.5% | viability, T/C [18] 77.3% | viability, T/C (second compound 1 µM, first compound 0.316 µM) 70.9% | viability, T/C (second compound 1 µM, first compound 1 µM) 64.8% | viability, T/C (second compound 1 µM, first compound 3.16 µM) 62.4% | viability, T/C (second compound 1 µM, first compound 10 µM) 57.4% | viability, T/C [23] 78.8% | viability, T/C [24] 79.8% | viability, T/C (second compound 3.16 µM, first compound 0.316 µM) 82.4% | viability, T/C (second compound 3.16 µM, first compound 1 µM) 70.7% | viability, T/C (second compound 3.16 µM, first compound 3.16 µM) 80% | viability, T/C (second compound 3.16 µM, first compound 10 µM) 60.6% | viability, T/C [29] 81.5% | viability, T/C [30] 81.1% | viability, T/C (second compound 10 µM, first compound 0.316 µM) 80.3% | viability, T/C (second compound 10 µM, first compound 1 µM) 93.3% | viability, T/C (second compound 10 µM, first compound 3.16 µM) 71.3% | viability, T/C (second compound 10 µM, first compound 10 µM) 87.1%
9.08 µM: IC50 (second compound 0.1 µM)
